Legend:
FLT3-ITD = target: T1, FLT3-ITD (Homo sapiens, UniProt P36888); experiment: FLT3-ITD biochemical kinase assay (AlphaScreen)
T1 construct: FLT3-ITD; Invitrogen #PV6190
T1 sequence (P36888 1-993): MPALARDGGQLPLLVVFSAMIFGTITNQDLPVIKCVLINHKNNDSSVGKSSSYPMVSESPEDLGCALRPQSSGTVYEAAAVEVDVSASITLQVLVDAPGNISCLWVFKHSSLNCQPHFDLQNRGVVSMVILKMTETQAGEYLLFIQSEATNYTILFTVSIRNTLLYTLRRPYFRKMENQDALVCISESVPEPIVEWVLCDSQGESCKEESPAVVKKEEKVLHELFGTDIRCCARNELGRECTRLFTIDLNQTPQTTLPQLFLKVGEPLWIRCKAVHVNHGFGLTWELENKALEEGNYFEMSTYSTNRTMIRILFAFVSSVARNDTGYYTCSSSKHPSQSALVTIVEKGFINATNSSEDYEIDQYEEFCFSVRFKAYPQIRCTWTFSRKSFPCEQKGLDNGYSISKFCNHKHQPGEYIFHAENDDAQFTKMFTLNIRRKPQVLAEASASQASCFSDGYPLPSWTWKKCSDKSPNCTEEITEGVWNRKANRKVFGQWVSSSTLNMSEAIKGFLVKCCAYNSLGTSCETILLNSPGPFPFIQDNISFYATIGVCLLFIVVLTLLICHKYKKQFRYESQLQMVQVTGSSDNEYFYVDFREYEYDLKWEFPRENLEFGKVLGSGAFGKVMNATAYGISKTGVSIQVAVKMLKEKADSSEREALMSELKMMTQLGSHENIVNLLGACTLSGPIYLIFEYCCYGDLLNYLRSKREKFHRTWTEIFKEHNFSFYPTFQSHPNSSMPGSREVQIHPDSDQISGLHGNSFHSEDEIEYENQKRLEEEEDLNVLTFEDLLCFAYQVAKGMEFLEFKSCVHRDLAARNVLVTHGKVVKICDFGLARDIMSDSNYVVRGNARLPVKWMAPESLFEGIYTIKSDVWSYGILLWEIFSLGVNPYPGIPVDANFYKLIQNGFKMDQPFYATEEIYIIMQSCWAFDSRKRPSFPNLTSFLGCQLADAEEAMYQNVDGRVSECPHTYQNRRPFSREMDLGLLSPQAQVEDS
Outline: (§1)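 AlphaScreen read-out of tyrosine phosphorylation of a 30 nM biotinylated poly(Glu4-Tyr) substrate, captured on streptavidin donor and PY20 acceptor beads at room temperature. ATP for IC50 work was 100 μM with FLT3-ITD and 10 μM with FLT3-D835Y; reduced 580 nm proximity signal reflects kinase inhibition.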

c-Kit = c-Kit (Homo sapiens, UniProt P10721); experiment: c-Kit biochemical assay (per US 2007/0032519)
Sequence of c-Kit (P10721 26-976): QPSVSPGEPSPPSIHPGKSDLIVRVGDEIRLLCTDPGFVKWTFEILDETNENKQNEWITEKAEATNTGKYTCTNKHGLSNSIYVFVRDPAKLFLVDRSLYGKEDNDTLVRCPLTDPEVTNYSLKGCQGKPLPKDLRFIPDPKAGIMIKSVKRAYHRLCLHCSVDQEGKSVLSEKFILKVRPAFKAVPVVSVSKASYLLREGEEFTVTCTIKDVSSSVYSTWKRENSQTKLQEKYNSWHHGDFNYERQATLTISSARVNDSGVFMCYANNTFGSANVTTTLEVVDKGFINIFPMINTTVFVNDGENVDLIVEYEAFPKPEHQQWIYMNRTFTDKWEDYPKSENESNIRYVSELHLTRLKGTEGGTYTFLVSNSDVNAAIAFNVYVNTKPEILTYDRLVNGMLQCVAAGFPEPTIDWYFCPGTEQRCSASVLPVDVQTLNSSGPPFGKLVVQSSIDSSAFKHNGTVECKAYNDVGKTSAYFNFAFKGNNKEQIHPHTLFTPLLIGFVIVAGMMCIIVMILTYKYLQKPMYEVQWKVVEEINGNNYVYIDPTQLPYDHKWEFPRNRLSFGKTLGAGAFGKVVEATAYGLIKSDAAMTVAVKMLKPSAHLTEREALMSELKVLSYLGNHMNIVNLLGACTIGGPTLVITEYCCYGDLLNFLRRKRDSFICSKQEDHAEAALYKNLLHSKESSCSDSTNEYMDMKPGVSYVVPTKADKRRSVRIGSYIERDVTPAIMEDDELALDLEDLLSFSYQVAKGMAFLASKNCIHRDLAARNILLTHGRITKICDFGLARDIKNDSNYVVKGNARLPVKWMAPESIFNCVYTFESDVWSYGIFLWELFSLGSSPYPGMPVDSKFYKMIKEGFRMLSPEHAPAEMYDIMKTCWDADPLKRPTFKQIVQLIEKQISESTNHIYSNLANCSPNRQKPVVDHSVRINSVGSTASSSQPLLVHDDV
Outline: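 Biochemical kinase inhibition run per US 2007/0032519; values reported as binned IC50 ranges (0.0001–1 μM, 1–10 μM, 10–200 μM).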

FLT3-D835Y = target: T2, FLT3-D835Y (Homo sapiens, UniProt P36888, D835Y); experiment: FLT3-D835Y biochemical kinase assay (AlphaScreen)
T2 construct: purchased Invitrogen PV3967
T2 sequence (P36888 27-993 D835Y): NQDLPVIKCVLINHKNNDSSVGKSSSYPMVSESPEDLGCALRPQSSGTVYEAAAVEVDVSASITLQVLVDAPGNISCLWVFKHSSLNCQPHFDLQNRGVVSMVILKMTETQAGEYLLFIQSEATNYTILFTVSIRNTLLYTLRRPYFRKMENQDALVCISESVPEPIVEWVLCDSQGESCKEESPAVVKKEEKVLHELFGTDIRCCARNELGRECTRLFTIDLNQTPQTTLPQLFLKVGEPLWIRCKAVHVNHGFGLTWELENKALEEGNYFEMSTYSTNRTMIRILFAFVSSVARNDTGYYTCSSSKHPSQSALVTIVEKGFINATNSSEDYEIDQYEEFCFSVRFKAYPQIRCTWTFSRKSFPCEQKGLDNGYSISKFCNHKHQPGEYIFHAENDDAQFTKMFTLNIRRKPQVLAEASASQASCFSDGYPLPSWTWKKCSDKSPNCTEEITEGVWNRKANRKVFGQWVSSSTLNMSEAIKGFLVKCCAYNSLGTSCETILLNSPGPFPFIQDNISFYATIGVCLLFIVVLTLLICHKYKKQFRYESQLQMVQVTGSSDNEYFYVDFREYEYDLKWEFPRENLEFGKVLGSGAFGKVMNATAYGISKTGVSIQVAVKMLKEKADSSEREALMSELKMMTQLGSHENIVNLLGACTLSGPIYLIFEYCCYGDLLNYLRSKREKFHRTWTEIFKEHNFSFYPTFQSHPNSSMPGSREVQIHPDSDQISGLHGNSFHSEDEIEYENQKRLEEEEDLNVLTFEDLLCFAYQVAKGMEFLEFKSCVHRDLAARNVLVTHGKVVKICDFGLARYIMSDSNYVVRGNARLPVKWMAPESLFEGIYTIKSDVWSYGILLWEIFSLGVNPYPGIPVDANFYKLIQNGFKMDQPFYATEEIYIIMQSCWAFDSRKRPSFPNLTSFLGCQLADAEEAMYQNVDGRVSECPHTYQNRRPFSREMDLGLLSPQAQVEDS
Outline: as §1

SMILES	IC50 (FLT3-ITD) [µM]	IC50 (c-Kit) [µM]	IC50 (FLT3-D835Y) [µM]
CS(=O)(=O)Nc1cccc(-c2cnc3[nH]cc(-c4ccc5ncn(CC(F)(F)F)c5c4)c3n2)c1 [P-069, N-[3-[7-[3-(2,2,2-trifluoroethyl)benzimidazol-5-yl]-5H-pyrrolo[2,3-b]pyrazin-2-yl]phenyl]methanesulfonamide]	0.0001 to 1	10 to 200	0.0001 to 1
CS(=O)(=O)Nc1cccc(-c2cnc3[nH]cc(-c4ccc5[nH]cnc5c4)c3n2)c1 [P-011, N-[3-[7-(1H-benzimidazol-5-yl)-5H-pyrrolo[2,3-b]pyrazin-2-yl]phenyl]methanesulfonamide]	0.0001 to 1	1 to 10	0.0001 to 1
CS(=O)(=O)Nc1cccc(-c2cnc3[nH]cc(-c4ccc5c(c4)OCO5)c3n2)c1 [P-058, N-[3-[7-(1,3-benzodioxol-5-yl)-5H-pyrrolo[2,3-b]pyrazin-2-yl]phenyl]methanesulfonamide]	0.0001 to 1	10 to 200	0.0001 to 1
Cc1nn(C(C)C)cc1-c1cnc2[nH]cc(-c3ccc4ncn(C(C)(C)C)c4c3)c2n1 [P-381, 7-(3-tert-butylbenzimidazol-5-yl)-2-(1-isopropyl-3-methyl-pyrazol-4-yl)-5H-pyrrolo[2,3-b]pyrazine]	0.0001 to 1	0.0001 to 1	0.0001 to 1
O=C(C1CC1)N1CCC=C(c2cnc3[nH]cc(-c4ccc5[nH]cnc5c4)c3c2)C1 [P-033, [5-[3-(1H-benzimidazol-5-yl)-1H-pyrrolo[2,3-b]pyridin-5-yl]-3,6-dihydro-2H-pyridin-1-yl]-cyclopropyl-methanone]	0.0001 to 1	10 to 200	1 to 10
Cn1cnc2ccc(-c3c[nH]c4ncc(C5=CCN(C(=O)C6CC6)C5)nc34)cc21 [P-082, cyclopropyl-[3-[7-(3-methylbenzimidazol-5-yl)-5H-pyrrolo[2,3-b]pyrazin-2-yl]-2,5-dihydropyrrol-1-yl]methanone]	0.0001 to 1	1 to 10	0.0001 to 1
Cn1cnc2ccc(-c3c[nH]c4ncc(-c5cccc(NS(C)(=O)=O)c5)nc34)cc21 [P-038, N-[3-[7-(3-methylbenzimidazol-5-yl)-5H-pyrrolo[2,3-b]pyrazin-2-yl]phenyl]methanesulfonamide]	0.0001 to 1	10 to 200	0.0001 to 1
CC(C)n1cc(-c2cnc3[nH]cc(-c4ccc5ncn(C(C)(C)C)c5c4)c3n2)cn1 [P-382, 7-(3-tert-butylbenzimidazol-5-yl)-2-(1-isopropylpyrazol-4-yl)-5H-pyrrolo[2,3-b]pyrazine]	0.0001 to 1	0.0001 to 1	0.0001 to 1
CC(C)(C)n1cnc2ccc(-c3c[nH]c4ncc(C5=CCN(C(=O)C6CC6)C5)nc34)cc21 [P-127, [3-[7-(3-tert-butylbenzimidazol-5-yl)-5H-pyrrolo[2,3-b]pyrazin-2-yl]-2,5-dihydropyrrol-1-yl]-cyclopropyl-methanone]	0.0001 to 1	1 to 10	0.0001 to 1
c1cnc2[nH]cc(-c3ccc4[nH]ncc4c3)c2c1 [P-001, 3-(1H-indazol-5-yl)-1H-pyrrolo[2,3-b]pyridine]	1 to 10	0.0001 to 1	1 to 10

Continued, values first:

IC50 (FLT3-ITD) [µM]	IC50 (c-Kit) [µM]	IC50 (FLT3-D835Y) [µM]	SMILES
0.0001 to 1	1 to 10	0.0001 to 1	Cn1cnc2ccc(-c3c[nH]c4ncc(-c5cccc(N6CCOCC6)c5)cc34)cc21 [P-095, 4-[3-[3-(3-methylbenzimidazol-5-yl)-1H-pyrrolo[2,3-b]pyridin-5-yl]phenyl]morpholine]
0.0001 to 1	0.0001 to 1	0.0001 to 1	COc1cc(-c2cnc3[nH]cc(-c4ccc5ncn(C)c5c4)c3c2)ccc1Cl [P-092, 5-(4-chloro-3-methoxy-phenyl)-3-(3-methylbenzimidazol-5-yl)-1H-pyrrolo[2,3-b]pyridine]
0.0001 to 1	1 to 10	0.0001 to 1	CC(C)S(=O)(=O)Nc1cccc(-c2cnc3[nH]cc(-c4ccc5ncn(C)c5c4)c3c2)c1 [P-096, N-[3-[3-(3-methylbenzimidazol-5-yl)-1H-pyrrolo[2,3-b]pyridin-5-yl]phenyl]propane-2-sulfonamide]
0.0001 to 1	10 to 200	0.0001 to 1	Cn1cnc2ccc(-c3c[nH]c4ncc(-c5cccc(NS(C)(=O)=O)c5)cc34)cc21 [P-037, N-[3-[3-(3-methylbenzimidazol-5-yl)-1H-pyrrolo[2,3-b]pyridin-5-yl]phenyl]methanesulfonamide]
0.0001 to 1	10 to 200	1 to 10	COc1cnc2[nH]cc(-c3ccc4[nH]c(C)nc4c3)c2c1 [P-015, 5-methoxy-3-(2-methyl-1H-benzimidazol-5-yl)-1H-pyrrolo[2,3-b]pyridine]
0.0001 to 1	10 to 200	0.0001 to 1	CCCn1cnc2cc(-c3c[nH]c4ncc(OC)cc34)ccc21 [P-056, 5-methoxy-3-(1-propylbenzimidazol-5-yl)-1H-pyrrolo[2,3-b]pyridine]
0.0001 to 1	1 to 10	1 to 10	c1nc2cc(-c3c[nH]c4ncc(OCC5CC5)cc34)ccc2[nH]1 [P-007, 3-(1H-benzimidazol-5-yl)-5-(cyclopropylmethoxy)-1H-pyrrolo[2,3-b]pyridine]
0.0001 to 1	10 to 200	0.0001 to 1	Cn1cnc2ccc(-c3c[nH]c4ncc(-c5cccc(C(F)(F)F)c5)cc34)cc21 [P-132, 1-methyl-6-[5-[3-(trifluoromethyl)phenyl]-1H-pyrrolo[2,3-b]pyridin-3-yl]benzimidazole]
0.0001 to 1	10 to 200	0.0001 to 1	CCn1cnc2ccc(-c3c[nH]c4ncc(OC)cc34)cc21 [P-048, 1-ethyl-6-(5-methoxy-1H-pyrrolo[2,3-b]pyridin-3-yl)benzimidazole]
0.0001 to 1	10 to 200	0.0001 to 1	COc1cc(-c2cnc3[nH]cc(-c4ccc5ncn(C)c5c4)c3n2)ccn1 [P-045, 2-(2-methoxy-4-pyridyl)-7-(3-methylbenzimidazol-5-yl)-5H-pyrrolo[2,3-b]pyrazine]
1 to 10	1 to 10	0.0001 to 1	c1cnc2[nH]cc(-c3ccc4[nH]cnc4c3)c2c1 [P-004, 3-(1H-benzimidazol-5-yl)-1H-pyrrolo[2,3-b]pyridine]
1 to 10	10 to 200	10 to 200	c1cnc2[nH]cc(-c3ccc4[nH]nnc4c3)c2c1 [P-005, 5-(1H-pyrrolo[2,3-b]pyridin-3-yl)-1H-benzotriazole]
0.0001 to 1	0.0001 to 1	0.0001 to 1	c1nc2cc(-c3c[nH]c4ncc(-c5cnc(C6CC6)nc5)cc34)ccc2[nH]1 [P-027, 3-(1H-benzimidazol-5-yl)-5-(2-cyclopropylpyrimidin-5-yl)-1H-pyrrolo[2,3-b]pyridine]

Source: patent US10160755B2 (Plexxikon Inc., priority 2015, dated 2018)
